Converted amounts (≈) assume the structure as drawn. Where two headings read alike, the source gives them in different places. Each block holds one compound with its values, some of them ahead of it.
How the values were obtained:
[1] = cited from earlier work; for Solubility: in water
[2] = Equilibrium solubility of gestodene bulk drug in water and normal saline, before and after micronization; type: physicochemical; conditions: thermodynamic from solid, shaken 72 hours
Procedure: The prepared implant needs to be implanted in the subcutaneous tissue of the human upper arm, where the pH is close to neutral. Therefore, the release medium can be either water or normal saline. A supersaturated solution of the gestodene bulk drug in water and normal saline, both before and after micronization, was prepared. The solution was placed in a shaker and shaken for 72 hours. After shaking, the mixture was taken out and centrifuged, and the supernatant was filtered. The equilibrium solubility of the gestodene bulk drug in water and normal saline, both before and after micronization, was determined using high performance liquid chromatography. Based on the results, the appropriate release medium was selected.
In vitro release experiments were conducted on implants with different silicone tube wall thicknesses, medicinal core side areas, and drug particle sizes. Based on the in vitro release results, long-acting contraceptive implants with a daily drug release of 10-30 μg were prepared. The prepared implant was implanted in the subcutaneous tissue of the human upper arm, where the pH was close to neutral, allowing the release medium to be chosen between water and normal saline. A supersaturated solution of the gestodene bulk drug in water and normal saline, both before and after micronization, was prepared. The solution was placed in a shaker and shaken for 72 hours. After shaking, the mixture was taken out and centrifuged, and the supernatant was filtered. The equilibrium solubility of the gestodene bulk drug in water and normal saline, both before and after micronization, was determined using high performance liquid chromatography. Based on the results, the appropriate release medium was selected. Water was selected as the release medium for the in vitro release experiments. In the following experiments to investigate the in vitro release amount, the implant from Example 27 was subjected to depowdering pre-treatment, which involved adding 50 mL of anhydrous ethanol to a conical flask containing the implant, followed by ultrasonication for 1 minute. This process was repeated three times, after which 100 mL of distilled water was added and left overnight. The next day, the soaking solution was discarded, and the implant was placed in a shaker for in vitro release.

[3] = cited from earlier work

Compound: O=c1c(-c2ccc(O)cc2)coc2c([C@@H]3O[C@H](CO)[C@@H](O)[C@H](O)[C@H]3O)c(O)ccc12 [puerarin]
Solubility ([1]; bulk drug): 4000 µg/mL (≈ 9610 µM)
LogP ([1]; bulk drug): −0.67
pKa ([1]; bulk drug): 6.45
pKa [1]: 6.45
solubility in water [1]: 4000 µg/mL (≈ 9610 µM)

Compound: Cc1nc2n(c(=O)c1CCN1CCC(c3noc4cc(F)ccc34)CC1)CCCC2O (stereo not shown) [paliperidone]
LogP ([1]; bulk drug): 3.02
pKa ([1]; bulk drug): 7.72
pKa [1]: 7.72

Compound: CC(C)Cc1ccc(C(C)C(=O)O)cc1 (stereo not shown) [ibuprofen]
Solubility ([1]; bulk drug): 60 µg/mL (≈ 291 µM)
LogP ([1]; bulk drug): 3.72
solubility in water [1]: 60 µg/mL (≈ 291 µM)

solubility at 72 h ([2]; normal saline, saline or isotonic, drug particle size 2.81 μm (micronized), normal saline (NS)): 2.71 ± 0.24 µg/mL (≈ 8.73 µM)
solubility at 72 h ([2]; normal saline, saline or isotonic, drug particle size 80.30 μm (unmicronized), normal saline (NS)): 5.3 ± 0.58 µg/mL (≈ 17.1 µM)
solubility at 72 h ([2]; water or normal saline, drug particle size 2.81 μm (micronized), water): 4.11 ± 0.52 µg/mL (≈ 13.2 µM)
solubility at 72 h ([2]; water or normal saline, drug particle size 80.30 μm (unmicronized), water): 5.64 ± 0.62 µg/mL (≈ 18.2 µM)
Compound: C#C[C@]1(O)C=C[C@H]2[C@@H]3CCC4=CC(=O)CC[C@@H]4[C@H]3CC[C@@]21CC [gestodene]
bioavailability ([3]; background statement): ~100%
daily release sufficient to produce a contraceptive effect ([3]; humans, review of the literature): 10 to 20 µg

Compound: Cc1cnc(NC(=O)C2=C(O)c3ccccc3S(=O)(=O)N2C)s1 [meloxicam]
Solubility ([1]; bulk drug): 3.4 µg/mL (≈ 9.68 µM)
LogP ([1]; bulk drug): 3.35
pKa ([1]; bulk drug): 4
pKa [1]: 4
solubility in water [1]: 3.4 µg/mL (≈ 9.68 µM)
